# Measurements from US5493007A, “Platelet aggregation inhibitors having high specificity for GPIIBIIIA” (Genentech, Inc., priority 1994, dated 1996).
# Where a SMILES comes first, the peptide text is derived from it. Bridges are numbered along the chain shown (N, C = ends). [ ]: non-standard residue; d: D form. Pen = CC(C)(S)[C@H](N)C(=O)O; Orn = NCCC[C@H](N)C(=O)O
# How the values were obtained:
# Type in all cases: in vivo
# [1] = tested on: New Zealand White rabbits; assay: Rabbit peripheral blood flow (PBF) by observation of ear vessels
# Procedure: Catheters are flushed and locked after every sample.
# For the experiments summarized in Table 1, PBF was monitored by observation of the condition of the blood vessels in the rabbits' ears, prior to and during the infusion. Normal flow is defined as ears that appear pink to red, with no visible constriction of the major blood vessels. Decreased flow applies to ears that have constricted vessels resulting in cold, pallid ears for up to 40 minutes following the start of the inhibitor infusion.
# Beagle dogs = assay: Bleeding time, dog model; conditions: for bleeding time during the infusion: dose printed for 7/46: bolus 125 μg/kg plus 3 μg/kg/min, 7/1 value is a mean
# Procedure: (§1) Beagle dogs were premedicated with atropine (3 mg subcutaneously) and anesthetized with intravenous sodium pentobarbital solution (65 mg/ml, to effect, induction and maintenance). The dogs were placed in dorsal recumbency on heating pads, intubated, and placed on oxygen-room air mixture (free breathing). A pulse oximeter was attached and heart rate and oxygen saturation monitored. An indwelling catheter was placed in one cephalic vein through which normal saline drip (for patency) and maintenance anesthetic doses were administered, and in one saphenous vein through which test or control compound was bolused or infused.
# At several timepoints bleeding times were measured. The forearm of the dog was closely shaven. A Surgicutt® automatic bleeding time device was employed to make an approximate 1 cm clean incision through the skin. Blood was blotted with the edge of a Whatman's #4 filter paper every 15 seconds. Bleeding time was measured as the time from incision to the last time blood was absorbed by the filter paper.
# [2] = tested on: platelet rich plasma (PRP); assay: Ex vivo platelet aggregation, dog model
# Procedure: as §1
# At each proscribed time point a 5 ml whole blood sample was withdrawn via jugular venipuncture for ex vivo platelet aggregation and complete blood cell count. Manual pressure was applied to the venipuncture site following blood withdrawal to minimize hematoma formation.
# Approximately one ml of blood withdrawn at each timepoint was placed on EDTA (purple-top vacutainer) and used to measure the complete blood cell count on a Cell-Dyne 1500 automated hematology analyzer. 3.6 ml of blood withdrawn at each timepoint was placed on a 3.8% sodium citrate (1 part to 9 parts blood) and centrifuged at 12,000 rpm for 4 seconds in an Eppendorf microcentrifuge. The resultant platelet rich plasma (PRP) was pipetted off for use in ex vivo aggregation procedures.
# Platelet aggregation was measured in a Payton dual-channel aggregometer. The equipment was calibrated with PRP assigned as 0% light transmission and PPP as 100% light transmission. PRP was allowed to rest at room temperature for 20 minutes following separation from whole blood. […] PRP was incubated at 37° C. in the aggregometer for approximately 5 minutes with the chart recorder on to establish a baseline. […] ADP (1 mM) was added to the PRP and the aggregation response (change in light transmission) recorded. An aliquot of the PRP was used to perform a platelet count on the Cell-Dyne 1500 automated hematology analyzer. [drawing 50] Example 7, Compound 1
# [3] = 300 μg/kg bolus plus an infusion of 7.2 μg/kg/min
# [4] = 200 μg/kg bolus plus an infusion of 4.8 μg/kg/min
smiles,measurement,setting,value
"N=C(N)NCCC[C@H](NC(=O)[C@@H]1CSCC(=O)N[C@H](Cc2ccc(O)cc2)C(=O)N[C@@H](CCCNC(=N)N)C(=O)NCC(=O)N[C@@H](CC(=O)O)C(=O)N1)C(N)=O [7/1, cyclo-S-acetyl-dTyr--Arg--Gly--Asp--Cys--Arg--NH2] ({CH2CO}-[dY]RGDCR-NH2; thioether N-5)","peripheral blood flow, result in words",[1],no substantial increase in cutaneous bleeding time (1.17 times; dosed to 100% inhibition of platelet aggregation) or decrease in peripheral blood flow
same,"bleeding time, preinfusion value",Beagle dogs; before infusion (baseline),3 min
same,bleeding time during the infusion,Beagle dogs,6.25 min
"N=C(N)NCCC[C@@H]1NC(=O)[C@@H](Cc2ccc(O)cc2)NC(=O)CSC[C@@H](C(=O)N[C@@H](CCCCN)C(N)=O)NC(=O)[C@H](CC(=O)O)NC(=O)CNC1=O [7/3, cyclo-S-acetyl-dTyr--Arg--Gly--Asp--Cys--Lys--NH2] ({CH2CO}-[dY]RGDCK-NH2; thioether N-5)",inhibition of ex vivo aggregation,[2]; [3],> 95%
same,"bleeding time, result in words",Beagle dogs; [3],without prolongation of the bleeding time
"N=C(N)NCCC[C@@H]1NC(=O)[C@@H](Cc2ccc(O)cc2)NC(=O)CSC[C@@H](C(=O)N[C@@H](CCCN)C(N)=O)NC(=O)[C@H](CC(=O)O)NC(=O)CNC1=O [7/5, cyclo-S-acetyl-dTyr--Arg--Gly--Asp--Cys--Orn--NH2] ({CH2CO}-[dY]RGDC[Orn]-NH2; thioether N-5)",inhibition of aggregation,[2]; [4],> 90%
same,"bleeding time, result in words",Beagle dogs; [4],minimal prolongation of bleeding
"CC1(C)SCC(=O)N[C@H](Cc2ccc(O)cc2)C(=O)N[C@@H](CCCCN)C(=O)NCC(=O)N[C@@H](CC(=O)O)C(=O)N[C@@H]1C(=O)N[C@@H](CCCNC(=N)N)C(N)=O [7/16, cyclo-S-acetyl-dTyr--Lys--Gly--Asp--Pen--Arg--NH2] ({CH2CO}-[dY]KGD[Pen]R-NH2; thioether N-5)","peripheral blood flow, result in words",[1],without substantial increased cutaneous bleeding time or decreased peripheral blood flow
"CC1(C)SCC(=O)N[C@H](Cc2ccc(O)cc2)C(=O)N[C@@H](CCCCN)C(=O)NCC(=O)N[C@@H](CC(=O)O)C(=O)N[C@@H]1C(=O)N[C@@H](CCCCN)C(N)=O [7/17, cyclo-S-acetyl-dTyr--Lys--Gly--Asp--Pen--Lys--NH2] ({CH2CO}-[dY]KGD[Pen]K-NH2; thioether N-5)","peripheral blood flow, result in words",[1],without substantial increased cutaneous bleeding time or decreased peripheral blood flow
"N=C(N)NCCC[C@@H]1NC(=O)[C@@H](Cc2ccc(O)cc2)NC(=O)CSC[C@@H](C(=O)O)NC(=O)[C@H](CC(=O)O)NC(=O)CNC1=O [7/46, cyclo-S-acetyl-dTyr--Arg--Gly--Asp--Cys--OH] ({CH2CO}-[dY]RGDC-OH; thioether N-5)",inhibition of ex vivo aggregation,"[2]; bolus of 125 μg/kg plus an infusion of 3 μg/kg/min, throughout the infusion period",100%
same,bleeding time during the infusion,Beagle dogs,> 30 min
